# From patent US20240075050A1, “Methods and Compositions for Treating Leucine Rich Repeat Kinase 2 (LRRK2)-Associated Disorder or Condition” (University of Connecticut, priority 2022, published 2024)
# Tests used:
# LRRK2 = experiment: Endogenous LRRK2 levels in SH-SY5Y cells, Western blot; format: cell-based, human
# [1] = stated as reason for using the precursor AICAr; cited from earlier work
# [2] = tested on: [α-32P]cap-labeled LRRK2 RNA; experiment: In vitro decapping assay; format: biochemical, human; details: recombinant Flag-tagged protein from HEK 293T cells, thin layer chromatography
molecule,measurement,setting,value
N#Cc1c(O)c2c(-c3ccc(-c4ccccc4O)cc3)csc2[nH]c1=O [A769662],LRRK2 levels,"LRRK2; SH-SY5Y, 10, 20, or 50 μM A769662, 48 hours",no obvious effects
Nc1ncnc2nc(-c3ccc(N4CCOCC4)nc3)cc(-c3cccc(Br)c3)c12 [ABT-702],effect of AICAr on LRRK2 levels in the presence of ABT-702,"LRRK2; SH-SY5Y, 1 mM AICAr plus 1 μM ABT-702, 48 hours",completely counteracted
"NC(=O)c1ncn([C@@H]2O[C@H](COP(=O)(O)O)[C@@H](O)[C@H]2O)c1N [AICAR/ZMP, 5-aminoimidazole-4-carboxamide ribonucleotide]",membrane permeability,[1],membrane impermeable
O=[N+]([O-])c1ccc(CSc2ncnc3c2ncn3[C@@H]2O[C@H](CO)[C@@H](O)[C@H]2O)cc1 [NBTI],effect of AICAr on LRRK2 levels in the presence of NBTI,"LRRK2; SH-SY5Y, 1 mM AICAr plus 50 μM NBT-1, 48 hours",completely abolished
DCP2: recombinant Flag-tagged decapping enzyme purified from HEK 293T cells,LRRK2 mRNA decapping activity (m7GDP level),[2],decapped LRRK2 mRNA
"DCP1A: recombinant Flag-tagged decapping enzyme purified from HEK 293T cells (protein, UniProt Q9NPI6 1-582, looked up, Flag tag, recombinant Flag-tagged decapping enzyme purified from HEK 293T cells) mRNA-decapping enzyme 1A: MEALSRAGQEMSLAALKQHDPYITSIADLTGQVALYTFCPKANQWEKTDIEGTLFVYRRSASPYHGFTIVNRLNMHNLVEPVNKDLEFQLHEPFLLYRNASLSIYSIWFYDKNDCHRIAKLMADVVEEETRRSQQAARDKQSPSQANGCSDHRPIDILEMLSRAKDEYERNQMGDSNISSPGLQPSTQLSNLGSTETLEEMPSGSQDKSAPSGHKHLTVEELFGTSLPKEQPAVVGLDSEEMERLPGDASQKEPNSFLPFPFEQLGGAPQSETLGVPSAAHHSVQPEITTPVLITPASITQSNEKHAPTYTIPLSPVLSPTLPAEAPTAQVPPSLPRNSTMMQAVKTTPRQRSPLLNQPVPELSHASLIANQSPFRAPLNVTNTAGTSLPSVDLLQKLRLTPQHDQIQTQPLGKGAMVASFSPAAGQLATPESFIEPPSKTAAARVAASASLSNMVLAPLQSMQQNQDPEVFVQPKVLSSAIPVAGAPLVTATTTAVSSVLLAPSVFQQTVTRSSDLERKASSPSPLTIGTPESQRKPSIILSKSQLQDTLIHLIKNDSSFLSTLHEVYLQVLTKNKDNHNL",LRRK2 mRNA decapping activity (m7GDP level),[2],decapped LRRK2 mRNA
